{"source": "ChEMBL document CHEMBL3045535", "about": "“Evaluation of lufenuron as a chemosterilant against fruit flies of the genus Anastrepha (Diptera: Tephritidae)” (2010)", "tested_on": "Anastrepha striata", "test": "Reduction of fertility in 7 days old adult of Anastrepha striata assessed as reduction of egg hatching at 1 mg/g treated with diet measured after 7 days oviposition", "format": "functional", "set-up": "scale not given: the % may be the effect or the level left", "data": [{"smiles": "O=C(NC(=O)c1c(F)cccc1F)Nc1cc(Cl)c(OC(F)(F)C(F)C(F)(F)F)cc1Cl", "note": "(racemic) [LUFENURON]", "values": [{"measurement": "Activity", "value": 1.3, "unit": "%"}]}]}
